{
  "source": "paper PMC10447463",
  "about": "“Data-mining unveils structure–property–activity correlation of viral infectivity enhancing self-assembling peptides” (Nature Communications, 2023)",
  "assay": "Aggregate analysis by widefield fluorescence microscopy",
  "type": "physicochemical",
  "details": "for Number of Aggregates / Aggregate Number: ThT-stained aggregates > 10 µm2 in 1330 µm × 1330 µm, 1 mg/mL 1 d, diluted to 0.1 mg/mL with 50 µM ThT, 3D object counter ImageJ, triplicate",
  "description": "4 µL of 1 mg/mL peptide fibrils solution is added to a 20 µL, 50 µM ThT–solution in PBS. The mixture is incubated for 15 min at RT to allow binding of ThT dye with β–sheet rich structures. For reference PBS (4 µL) was added instead of peptide fibril solution. The samples were placed in black UV Star® 384 microliter well–plates (Greiner bio–one). Fluorescence spectra were recorded on an Infinite® M1000 PRO microplate reader (Tecan) at λem = 488 nm upon excitation at λex = 440 nm with 10 nm bandwidths and multiple reads per well (3×3). Measurements were repeated in triplicates and averaged with standard deviation. A peptide fibril was considered as ThT-active if the fluorescence intensity was at least twice as strong compared to the control (PBS containing 10% DMSO). Zeta-Potential. For the determination of the surface charge of aggregated peptides zeta-potential measurements were conducted with a Zetasizer Nano ZS, Malvern Instruments. Unless stated otherwise the peptides were dissolved from DMSO (10 mg/mL) in PBS (pH 7.4) to concentration of 1 mg/mL and incubated for 1d at RT. Just before the measurement the 60 µL of the peptides were further diluted in 600 µL KCl (aq, 1 mM) in a 1 mL disposable folded capillary cells (DTS–1060, Zetasizer Nano series, Malvern). The zeta potential of the peptides was derived from the electrophoretic mobility based on the Smoluchowski formula. All measurements were averaged over two individually performed experiments and conducted in triplicates for each sample. Aggregate analysis. […] Furthermore, fluorescence microscopy was conducted by staining 1 µL preformed fibrils (1 mg/mL) with 9 µL ThT (50 µM). Brightfield microscopy was performed simultaneously to evaluate aggregation also for non ThT-active fibrils. The measurements were performed on a Leica DMi8 microscope with 10x air objective and equipped with a Leica MC170 HD camera with a filter setting λem = 527/30 nm upon excitation at λex = 480/40 nm) and processed with the Leica LASX software. To quantify size and number of microscopic aggregation of particles > 10 µm^2 at least 3 independently measured images were analyzed via the 3D object counter analysis tool of ImageJ, v 1.53f51. Sum–frequency generation. The SFG experiments were carried out with a femtosecond Ti: Sapphire amplified laser system (Spitfire Ace, Spectra–Physics, 800 nm, 40 fs, 1 kHz) with 5 W output power. We used 2 W to pump an optical parametric amplifier (TOPAS, light conversion) with a non–collinear difference frequency generation stage to generate broadband IR pulses. Another 1 W of the laser output passed through an etalon to generate narrowband visible pulses (10 cm^-1). The incident angles of the visible and IR beams were 36° and 41° with respect to the surface normal, respectively. The visible (13 µJ) and IR (5 µJ) pulses were overlapped spatially and temporally at the sample position. Subsequently, the generated SFG pulse was guided into a spectrograph (Acton SP 300i, Princeton Instruments), and detected with an EMCCD (Newton, Andor Technology). To avoid IR absorption of water vapor, we purged N2 for the measurement. All spectra were collected in the ssp (denoting s-, s- and p-polarized SFG, visible and IR, respectively) polarization combination. The spectra were normalized to the non–resonant signal taken from z–cut quartz after subtracting a background spectrum.\nTable S8 Summary of aggregate analysis from widefield microscopy measurements (Figure S32). The Number of aggregated peptides, the median size area, average size area\nand the cumulative total size area of all particles (> 10 µm2) in an area of 1330 µm × 1330 µm was determined via automated 3D object counting (ImageJ) in triplicate\nmeasurements (Std. Dev.).\nAggregate Std. Dev. Std. Dev. Std. Dev. Std. Dev.\nSequence Abs. Inf. / Std. Dev. / Count Rate / Std. Dev. Number Aggregate Median Area Median Area Average Area Average Area Total Area/ Total Area/ […]",
  "data": [
    {"substance": "CKFKFQFNM", "values": [
      {"measurement": "Number of Aggregates / Aggregate Number", "value": 170}
    ]},
    {"substance": "KIKQIINMWQ", "values": [
      {"measurement": "Number of Aggregates / Aggregate Number", "value": 39}
    ]},
    {"substance": "CKWKWQW", "values": [
      {"measurement": "Number of Aggregates / Aggregate Number", "value": 87}
    ]},
    {"substance": "KWKWQW", "values": [
      {"measurement": "Number of Aggregates / Aggregate Number", "value": 28}
    ]},
    {"substance": "QCKIKIQINMWQ", "values": [
      {"measurement": "Number of Aggregates / Aggregate Number", "value": 398}
    ]},
    {"substance": "CHLHLQL", "values": [
      {"measurement": "Number of Aggregates / Aggregate Number", "value": 36}
    ]},
    {"substance": "KFKFQFNMWQ", "values": [
      {"measurement": "Number of Aggregates / Aggregate Number", "value": 64}
    ]},
    {"substance": "HIHIQIC", "values": [
      {"measurement": "Number of Aggregates / Aggregate Number", "value": 33}
    ]},
    {"substance": "CKFKFQF", "values": [
      {"measurement": "Number of Aggregates / Aggregate Number", "value": 128},
      {"measurement": "Log10 Number Aggregates", "setting": "logarithm of averaged number of aggregates in 1330 µm × 1330 µm", "value": 2.108}
    ]},
    {"substance": "QCKIKQIINMWQ [reference compound]", "values": [
      {"measurement": "Avg Area in 3 *(1330 µm *1330 µm)", "setting": "Fig S8 panels A, C", "value": 71.85},
      {"measurement": "Log 10 Number of aggregates in 3 * (1330 µm *1330 µm)", "setting": "Fig S8 panels A, C", "value": 2.611},
      {"measurement": "Median Area in 3 * (1330 µm *1330 µm)", "setting": "Fig S8 panels A, C", "value": 27.89},
      {"measurement": "log Avg Area in 3 * ( (1330 µm *1330 µm))", "setting": "Fig S8 panels A, C", "value": 1.856},
      {"measurement": "log Median Area in 3 * ( (1330 µm *1330 µm))", "setting": "Fig S8 panels A, C", "value": 1.445},
      {"measurement": "log Total Area of all particles in 3 * (1330 µm *1330 µm)", "setting": "Fig S8 panels A, C", "value": 4.467},
      {"measurement": "Number of aggregates in 3 * (1330 µm *1330 µm)", "setting": "Fig S8 panels A, C, 3 fields of 1330 µm x 1330 µm", "value": 408},
      {"measurement": "Avg Area in 3 *(1330 µm *1330 µm)", "setting": "Fig S8 panels B, D, average aggregate area, 3 fields of 1330 µm x 1330 µm", "value": 71.85},
      {"measurement": "Median Area in 3 * (1330 µm *1330 µm)", "setting": "Fig S8 panels B, D, median aggregate area, 3 fields of 1330 µm x 1330 µm", "value": 27.89},
      {"measurement": "Total Area of all particles in 3 * (1330 µm *1330 µm)", "setting": "Fig S8 panels B, D, total area of all particles, 3 fields of 1330 µm x 1330 µm", "value": 29314.25467},
      {"measurement": "Number of aggregates in 3 * (1330 µm *1330 µm)", "setting": "Fig S8 panels B, D, widefield fluorescence microscopy, 3 fields of 1330 µm x 1330 µm", "value": 408},
      {"measurement": "Number of Aggregates / Aggregate Number", "value": 408}
    ]},
    {"substance": "KIKQIIN", "values": [
      {"measurement": "Number of Aggregates / Aggregate Number", "value": 12}
    ]}
  ]
}
